The kinase profiling compilation of Christmann-Franck et al. (2016)

The compounds below were run on SGK1 (human), O00141 [S422D] (assay: radiometric filter-binding kinase assay, Kinase HotSpot). Details: compound 0.5 µM; ATP 10 µM.
SGK1 (human), O00141 [S422D], sequence (O00141 whole entry S422D, looked up): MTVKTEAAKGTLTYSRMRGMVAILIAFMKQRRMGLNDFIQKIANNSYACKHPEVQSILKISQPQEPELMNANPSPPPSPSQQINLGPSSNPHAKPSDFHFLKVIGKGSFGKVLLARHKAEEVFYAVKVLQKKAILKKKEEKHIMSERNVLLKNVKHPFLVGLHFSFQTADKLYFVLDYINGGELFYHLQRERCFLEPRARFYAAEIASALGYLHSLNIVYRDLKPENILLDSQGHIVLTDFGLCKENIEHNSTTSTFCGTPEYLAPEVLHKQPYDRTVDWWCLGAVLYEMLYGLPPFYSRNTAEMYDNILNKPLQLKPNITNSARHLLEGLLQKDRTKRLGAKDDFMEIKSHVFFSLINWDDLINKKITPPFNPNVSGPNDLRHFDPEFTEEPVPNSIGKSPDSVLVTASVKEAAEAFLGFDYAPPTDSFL

residual activity [%]	SMILES
92	CCOC(=O)c1c(C)[nH]c(/C=C2\C(=O)Nc3ccccc32)c1C
97	CCCC(=O)Oc1ccc2[nH]c(C(=O)c3cc4ccccc4[nH]3)cc2c1
81.9	CO[C@@H]1[C@H](N(C)C(=O)c2ccccc2)C[C@H]2O[C@]1(C)n1c3ccccc3c3c4c(c5c6ccccc6n2c5c31)C(=O)NC4
101	c1ccc(-c2n[nH]c3c2oc2ccccc23)cc1
121	NC(=O)c1ccc(N(C(N)=O)c2c(F)cccc2F)nc1-c1ccc(F)cc1F
101	Oc1ccc(-c2nc(-c3ccc(F)cc3)c(-c3ccncc3)[nH]2)cc1
95	O=C1NC(=O)/C(=C\c2ccc3nccnc3c2)S1
94	Cn1sc(=O)n(Cc2ccccc2)c1=O
93.4	O=C1Nc2ccc(Br)cc2/C1=C\c1cc2c([nH]1)CCCC2
104	O=C1C(Cl)=C(N2C(=O)CCC2=O)C(=O)c2ccccc21
48.6	CN(C)CCCn1cc(C2=C(c3c[nH]c4ccccc34)C(=O)NC2=O)c2ccccc21
94.8	O=C(Nc1cccc(Nc2cc(Nc3cccc(C(F)(F)F)c3)ncn2)c1)C1CC1
93	Nc1nc(Nc2ccc(S(N)(=O)=O)cc2)nn1C(=O)c1c(F)cccc1F
93.8	c1ccc2c(-c3ccncc3)c[nH]c2c1
103	COc1cc2ncnc(Nc3ccc(OCc4ccccc4)cc3)c2cc1OC
103	O=C(Nc1cccc(Nc2nccc(Nc3cccc(C(F)(F)F)c3)n2)c1)C1CC1
115	Cn1cnc2cc3c(Nc4cccc(Br)c4)ncnc3cc21
99.8	COc1cc2ncnc(N3CCN(C(=O)Nc4ccc(Oc5ccccc5)cc4)CC3)c2cc1OC
106	Oc1ccc(Nc2nc(-c3ccc(Cl)cc3)cs2)cc1
101	Nc1cccc(-c2cc3c(Oc4cccc(O)c4)ncnc3[nH]2)c1
121	CCN1/C(=C/C(C)=O)Sc2ccc(OC)cc21
99.5	COc1ccc2c(c1)c(C1=C(c3c[nH]c4ccccc34)C(=O)NC1=O)cn2CCCN(C)C
131	COc1cc2ncnc(Nc3ccc(F)c(Cl)c3)c2cc1OCCCN1CCOCC1
97.4	Nc1nccc(-c2c(-c3ccc(F)cc3)ncn2C2CCNCC2)n1
67.2	O=C1c2ccccc2-c2nc3nnnn3nc21

residual activity [%]	SMILES
98.7	Cc1ccc(S(=O)(=O)/C=C/C#N)cc1
99.3	Cc1nc(-c2ccccc2)c(-c2ccncc2)o1
103	N#C/C(=C\c1ccc(O)c(O)c1)C(=O)NCc1ccccc1
105	COc1ccc(CNC(=O)Nc2ncc([N+](=O)[O-])s2)cc1
50.9	CC(C)(C)c1nc2c3ccc(F)cc3c3c(=O)[nH]ccc3c2[nH]1
103	Cc1[nH]c(/C=C2\C(=O)Nc3ccc(S(=O)(=O)N(C)c4cccc(Cl)c4)cc32)c(C)c1C(=O)N1CCN(C)CC1
100	Oc1cccc(-c2nc(N3CCOCC3)c3oc4ncccc4c3n2)c1
93.2	N#Cc1c[nH]c2c[nH]/c(=N\Cc3cccnc3)cc2/c1=N\c1ccc(F)c(Cl)c1
99.9	Nc1n[nH]c2nnc(-c3c(-c4ccccc4)nn4ccccc34)cc12
96.1	N#CC(C#N)=C(N)/C(C#N)=C/c1ccc(O)cc1
72.9	CN(C)C[C@H]1CCn2c(c(C3=C(c4cn(C)c5ccccc45)C(=O)NC3=O)c3ccccc32)C1
93.1	CN(C)c1ccc(/C=C2\C(=O)Nc3ccccc32)cc1
103	Cc1cncc2cccc(S(=O)(=O)N3CCCN(C(=O)CN)C[C@H]3C)c12
74.2	O=C(c1cc2cc(O)ccc2[nH]1)c1cc2cc(O)ccc2[nH]1
81.8	CC(=O)O/N=C1\C(=C2\C(=O)Nc3cc(Br)ccc32)Nc2ccccc21
103	Cc1cc2ncc(-c3ccccc3)nc2cc1C
111	Cc1ccc(NC(=O)c2ccc(CN3CCN(C)CC3)cc2)cc1Nc1nc(-c2cccnc2)cs1
97.3	CS(=O)c1ccc(-c2nc(-c3ccc(F)cc3)c(-c3ccncc3)[nH]2)cc1 (configuration not stated)
81.8	COc1ccc(-c2cnc3c(-c4ccsc4)cnn3c2)cc1
105	CN(C)S(=O)(=O)c1ccc2c(c1)/C(=C/c1cc3c([nH]1)CCCC3)C(=O)N2
114	Nc1nnc2[nH]c3ccccc3nc1-2
48.7	Nc1nc(Nc2ccc(S(N)(=O)=O)cc2)nn1C(=S)Nc1c(F)cccc1F
103	Nc1ncnc2c1c(-c1ccc(Oc3ccccc3)cc1)cn2C1CCCC1
96	O=C(Nc1ccc(Cl)cc1)c1ccccc1NCc1ccncc1
94.8	Cn1nc2c3c(cccc31)C(=O)c1ccccc1-2

residual activity [%]	SMILES
128	CS(=O)(=O)CCNCc1ccc(-c2ccc3ncnc(Nc4ccc(OCc5cccc(F)c5)c(Cl)c4)c3c2)o1
62.8	CCN(CC)CCNC(=O)c1c(C)[nH]c(/C=C2\C(=O)Nc3ccc(F)cc32)c1C
101	NC(=O)c1cccc(-c2cc(Nc3ccc(OC(F)(F)F)cc3)ncn2)c1
96	O=C1Cc2c([nH]c3ccc([N+](=O)[O-])cc23)-c2ccccc2N1
97.9	COc1ccc(COc2ccc(Cc3cnc(N)nc3N)cc2OC)cc1
95.2	CNC(=O)c1cc(Oc2ccc(NC(=O)Nc3ccc(Cl)c(C(F)(F)F)c3)cc2)ccn1
97.3	CSc1nc(-c2ccc(F)cc2)c(-c2ccnc(NC(C)c3ccccc3)c2)[nH]1 (configuration not stated)
91.5	Nc1ncnc2[nH]nc(Nc3ccc(F)cc3)c12
95.6	CC#CC(=O)Nc1cc2c(Nc3ccc(F)c(Cl)c3)ncnc2cn1
88.5	COc1cc2ncc(-c3ccccc3)nc2cc1OC
116	O=C1Nc2ccccc2/C1=C\c1c(Cl)[nH]c2ccccc12
93.1	CC(C)[C@H](CO)Nc1nc(Nc2cc(N)cc(Cl)c2)c2ncn(C(C)C)c2n1
100	Fc1ccc(-c2nc3n(c2-c2ccncc2)CCS3)cc1
84.6	CCC(=O)Nc1ccc2ncnc(Nc3cccc(Br)c3)c2c1
102	N#C/C(=C(/N)Sc1ccc(N)cc1)c1ccccc1C(F)(F)F
49.6	CCN(CC)CCNC(=O)c1c(C)[nH]c(/C=C2\C(=O)Nc3ccc(Cl)cc32)c1C
97.2	CC(=O)c1ccc(N2CCOCC2)cc1O
107	O=C1Cc2c([nH]c3ccc(Br)cc23)-c2ccccc2N1
123	C[C@@H]1CCN(C(=O)CC#N)C[C@@H]1N(C)c1ncnc2[nH]ccc12
91.2	O=C1NC(=O)C(c2cn(CCCO)c3ncccc23)=C1c1cnccn1
99.6	Cc1cccc(-c2nc(C(C)(C)C)[nH]c2-c2ccc3c(c2)OCO3)n1
69	O=C1NC(=O)c2c1c1c3ccccc3[nH]c1n1cncc21
104	Nc1ccc2ncnc(NCCc3ccc(Oc4ccccc4)cc3)c2c1
60.9	O=C1Nc2cc(Br)ccc2/C1=C1/Nc2ccccc2/C1=N\O
121	Clc1ccc(Nc2nnc(Cc3ccncc3)c3ccccc23)cc1

SMILES	residual activity [%]
O=C1NC(=O)c2c1c1c3ccccc3n3c1c1c2c2ccccc2n1C1CCC3O1	23.8
CCn1cnc2c(Nc3cccc(Cl)c3)nc(N[C@@H]3CCCC[C@@H]3N)nc21	120
